One molecule from ChEMBL document CHEMBL4371004, “A-C Estrogens as Potent and Selective Estrogen Receptor-Beta Agonists (SERBAs) to Enhance Memory Consolidation under Low-Estrogen Conditions” (J Med Chem, 2018) can be followed below.

For orientation: IC50 means the concentration needed to halve the response being measured. Lower therefore signals higher potency.

The target in data set [1] is T1, Peroxisome proliferator-activated receptor delta (Homo sapiens) (UniProt Q03181).
T1 sequence (whole entry): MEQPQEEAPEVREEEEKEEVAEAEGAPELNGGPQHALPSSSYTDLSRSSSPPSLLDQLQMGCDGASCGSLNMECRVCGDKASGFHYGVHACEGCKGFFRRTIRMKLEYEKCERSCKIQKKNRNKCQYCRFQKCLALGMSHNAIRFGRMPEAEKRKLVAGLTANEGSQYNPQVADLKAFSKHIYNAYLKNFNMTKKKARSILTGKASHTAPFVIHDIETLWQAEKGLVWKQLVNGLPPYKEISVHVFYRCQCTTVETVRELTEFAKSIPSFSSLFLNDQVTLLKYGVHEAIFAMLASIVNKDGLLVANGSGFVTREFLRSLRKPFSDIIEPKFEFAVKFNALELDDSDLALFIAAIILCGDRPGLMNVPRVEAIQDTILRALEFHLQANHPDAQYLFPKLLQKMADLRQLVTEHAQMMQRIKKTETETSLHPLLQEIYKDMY
Nature of the data set: Agonist activity at GAL4 DNA binding domain fused PPARdelta (unknown origin) at 0.25 to 25 uM by FRET-based assay.

The target of data set [2] is T2, Progesterone receptor (Homo sapiens) (UniProt P06401).
T2 sequence (whole entry): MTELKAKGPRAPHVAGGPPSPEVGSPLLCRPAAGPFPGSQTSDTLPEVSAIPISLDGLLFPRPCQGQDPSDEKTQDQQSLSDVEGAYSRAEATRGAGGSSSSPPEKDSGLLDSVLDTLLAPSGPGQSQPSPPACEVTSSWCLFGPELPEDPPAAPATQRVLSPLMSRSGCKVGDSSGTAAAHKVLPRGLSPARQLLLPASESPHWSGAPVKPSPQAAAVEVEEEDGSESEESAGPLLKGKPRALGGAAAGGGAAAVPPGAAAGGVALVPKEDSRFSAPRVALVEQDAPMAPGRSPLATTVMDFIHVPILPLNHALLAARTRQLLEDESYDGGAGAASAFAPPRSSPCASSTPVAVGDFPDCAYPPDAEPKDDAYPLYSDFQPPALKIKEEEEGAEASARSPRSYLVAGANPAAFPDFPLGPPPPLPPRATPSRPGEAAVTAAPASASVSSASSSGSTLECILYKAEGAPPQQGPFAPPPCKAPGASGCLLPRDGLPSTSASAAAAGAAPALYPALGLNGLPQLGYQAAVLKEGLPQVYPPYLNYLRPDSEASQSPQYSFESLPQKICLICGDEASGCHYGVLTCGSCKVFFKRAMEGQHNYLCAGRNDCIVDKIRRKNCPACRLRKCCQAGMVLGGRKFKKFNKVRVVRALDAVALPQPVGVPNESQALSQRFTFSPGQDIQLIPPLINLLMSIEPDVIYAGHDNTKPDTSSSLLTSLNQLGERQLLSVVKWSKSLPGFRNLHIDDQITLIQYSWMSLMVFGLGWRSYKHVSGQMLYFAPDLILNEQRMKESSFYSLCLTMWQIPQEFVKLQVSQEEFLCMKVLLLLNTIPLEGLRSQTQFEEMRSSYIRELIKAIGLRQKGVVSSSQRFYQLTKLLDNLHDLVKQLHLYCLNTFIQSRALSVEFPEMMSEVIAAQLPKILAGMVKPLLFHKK
Kind of data set: Agonist activity at GAL4 DNA binding domain fused progesterone receptor ligand binding domain (unknown origin) at 0.25 to 25 uM by FRET-based assay.

The next data set addresses T3, Cytochrome P450 1A2 (Homo sapiens, UniProt P05177).
T3 sequence (P05177 whole entry): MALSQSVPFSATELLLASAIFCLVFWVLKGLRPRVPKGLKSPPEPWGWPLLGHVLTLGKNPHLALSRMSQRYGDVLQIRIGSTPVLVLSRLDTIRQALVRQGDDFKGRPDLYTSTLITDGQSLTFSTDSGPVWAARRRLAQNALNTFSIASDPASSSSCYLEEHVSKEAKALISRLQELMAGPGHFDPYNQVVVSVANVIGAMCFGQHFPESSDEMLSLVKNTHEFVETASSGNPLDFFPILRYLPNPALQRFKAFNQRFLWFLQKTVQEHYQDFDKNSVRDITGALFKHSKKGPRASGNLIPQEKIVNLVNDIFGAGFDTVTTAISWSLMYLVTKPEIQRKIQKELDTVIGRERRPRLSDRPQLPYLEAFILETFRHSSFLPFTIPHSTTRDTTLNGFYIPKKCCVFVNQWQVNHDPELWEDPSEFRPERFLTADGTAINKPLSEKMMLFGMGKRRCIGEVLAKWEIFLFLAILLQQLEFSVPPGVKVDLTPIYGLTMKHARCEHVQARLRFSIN
Nature of the data set: Inhibition of human recombinant CYP1A2 up to 100 uM preincubated for 10 mins followed by NADPH addition and measured after 10 to 30 mins by P450-Glo luminescence assay. Type of data set: ADME. The following applies: recombinant enzyme.

A further data set addresses Cytochrome P450 2D6 (Homo sapiens, UniProt P10635). Nature of the data set: Inhibition of human recombinant CYP2D6 up to 100 uM preincubated for 10 mins followed by NADPH addition and measured after 10 to 30 mins by P450-Glo luminescence assay. Type of data set: ADME. The settings on record: recombinant enzyme.
The test system of data set [3] is Mus musculus. Kind of data set: Memory enhancement effect in C57BL/6 mouse assessed as time spent with moved object at 5 mg/kg, ip by novel object recognition test. Type of data set: functional.
Data set [4] relates to Mus musculus. Nature of the data set: Memory enhancement effect in C57BL/6 mouse assessed as time spent with novel object at 0.5 mg/kg, ip by novel object recognition test. Type of data set: functional.
For data set [5], the system named is Mus musculus. Nature of the data set: Memory enhancement effect in C57BL/6 mouse assessed as time spent with moved object at 5 mg/kg, po administered via gavage by object recognition test. Type of data set: functional.
For data set [6], the system named is Mus musculus. Kind of data set: Memory enhancement effect in C57BL/6 mouse assessed as time spent with novel object at 5 mg/kg, po administered via gavage by novel object recognition test. The class given is functional.
The target in the next data set is T4, Estrogen receptor (Homo sapiens, UniProt P03372).
T4 sequence (P03372 whole entry): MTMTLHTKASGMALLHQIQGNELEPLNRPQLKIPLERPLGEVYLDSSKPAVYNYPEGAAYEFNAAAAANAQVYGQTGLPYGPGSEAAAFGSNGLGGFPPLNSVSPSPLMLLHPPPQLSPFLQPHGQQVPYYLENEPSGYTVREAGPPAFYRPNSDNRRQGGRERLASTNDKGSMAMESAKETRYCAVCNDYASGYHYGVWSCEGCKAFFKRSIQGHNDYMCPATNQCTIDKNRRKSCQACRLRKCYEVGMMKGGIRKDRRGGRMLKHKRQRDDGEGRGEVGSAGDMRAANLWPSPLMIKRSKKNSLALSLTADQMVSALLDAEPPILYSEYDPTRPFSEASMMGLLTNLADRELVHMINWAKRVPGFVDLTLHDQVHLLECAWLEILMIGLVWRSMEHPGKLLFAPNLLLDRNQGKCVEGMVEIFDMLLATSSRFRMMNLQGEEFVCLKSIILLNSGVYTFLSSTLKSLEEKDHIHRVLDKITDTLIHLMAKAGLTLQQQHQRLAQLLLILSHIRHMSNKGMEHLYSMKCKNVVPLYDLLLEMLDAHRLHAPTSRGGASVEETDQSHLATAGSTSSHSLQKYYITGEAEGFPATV

Activity calls are given as the source filed them. The calls are words filed in the database; no cut-off is given here.

Chain of Cytochrome P450 2D6 (P10635 whole entry): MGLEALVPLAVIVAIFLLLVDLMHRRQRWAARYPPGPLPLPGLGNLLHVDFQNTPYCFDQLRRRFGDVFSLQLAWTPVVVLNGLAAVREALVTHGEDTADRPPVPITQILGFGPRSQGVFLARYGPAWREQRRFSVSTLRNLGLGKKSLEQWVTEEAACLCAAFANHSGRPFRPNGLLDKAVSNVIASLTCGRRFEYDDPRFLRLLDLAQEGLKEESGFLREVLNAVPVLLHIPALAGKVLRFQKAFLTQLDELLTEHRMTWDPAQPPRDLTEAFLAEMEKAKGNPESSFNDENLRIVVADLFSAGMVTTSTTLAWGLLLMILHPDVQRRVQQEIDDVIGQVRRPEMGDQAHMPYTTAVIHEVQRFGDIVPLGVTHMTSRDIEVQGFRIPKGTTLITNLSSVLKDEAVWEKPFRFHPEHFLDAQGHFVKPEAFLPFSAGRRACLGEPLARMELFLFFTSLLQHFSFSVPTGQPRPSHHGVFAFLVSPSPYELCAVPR

In the case of `OC[C@H]1CC[C@H](c2ccc(O)cc2)CC1`, the outcome in [1] and in data set [2] was inactive. In addition, the “inhibition (INH)” value on Cytochrome P450 1A2 and at Cytochrome P450 2D6 was “Not Active” each time. Besides, the Time with Mus musculus [3] is given as 2.78 s; in the data set with Mus musculus [4] it was 4.17 s; in the data set on Mus musculus [5] it was 5.06 s; in the data set with Mus musculus [6], 2.36 s. Further, the concentration for half-maximal inhibition (IC50) against Estrogen receptor is 2940 nM.
